Assay results from patent US5648330A, “Method and composition for treating vascular graft occlusion” (La Jolla Cancer Research Foundation, priority 1995, dated 1997).
Values joined by “and” are separate entries in the source; they are usually repeats but may differ in a detail not shown here. Equal entries are not always repeated. Where no end group is shown, it is not given here. [ ]: non-standard residue; d: D form. Pen = CC(C)(S)[C@H](N)C(=O)O

Key:
[1] = system: platelets stimulated with ADP; test: ADP-stimulated platelet aggregation (Born aggregometry, PRP); format: cell-based, human; settings: ADP 10 μm, platelet-rich plasma, 37° C.
Experimental: Platelet aggregation was assessed using the method of Born, Nature 194: 927-929 (1962), incorporated herein by reference. Briefly, the change in light transmission was measured through a stirred suspension of platelets in an aggregometer (Model 400 VS, Chrono-Log, Havertown, Pa., USA). Studies employing ADP were performed with platelet-rich plasma (PRP), which was obtained by low-speed centrifugation (200× g for 10 min.) of whole blood freshly drawn into trisodium citrate (at a final concentration of 11 mM). […] For all studies, the reference standard was platelet-poor plasma, which was obtained by centrifuging PRP at 1000× g for 5 min.

platelet aggregation [2] = test: Ex vivo ADP-stimulated platelet aggregation in baboon PRP; settings: animal 2; ADP 10 μm; 0, 1 and 2 hours
Experimental: At one- and two-hour time points, template bleeding times were measured, and blood samples were drawn to assess the hematology aggregation studies. Platelet aggregation studies were performed as described in Example V using ADP as the stimulus.
In addition, platelet aggregation studies were conducted on PRP derived from the second animal. Whole blood was drawn at three time points (0, 1 and 2 hours) of both control and experimental shunts.

coronary thrombosis = test: Electrically induced canine coronary thrombosis, time to full occlusion; format: in vivo, dog
Experimental: Male mongrel dogs weighing 14 to 20 kg were selected based on proper aggregation of their platelets in response to arachidonic acid, collagen, and adenosine disphosphate (ADP) and based on similar weights and hemodynamic properties.
Before surgery, the animals were anesthetized with sodium pentobarbital (30 mg/kg, i.v.) and then intubated and ventilated on room air with positive pressure using a respirator (Harvard Apparatus, S. Natick, Mass.) at a volume of 30 ml/kg and a frequency of 12 breaths/min. Surgery, performed under aseptic conditions, was begun with the placement of cannulae into the left carotid artery and jugular vein for monitoring arterial blood pressure (Statham P23 pressure transducer, Gould, Inc., Cardiovascular Products, Oxnard, Calif.) and administering intravenous fluids.
The heart was exposed via a left thoracotomy through the 5th intercostal space. A 2-cm segment of the left circumflex coronary artery (LCCA) was isolated from surrounding tissue by blunt dissection. […] The intra-coronary electrode was constructed by attaching a 25-gauge hypodermic needle tip to a 30-gauge Teflon-insulated silver-coated copper wire. The mechanical occluder was constructed of stainless steel in a C shape with a Teflon screw (2 mm diameter) on top. It was adjusted to control vessel circumference and decrease the reactive hyperemic flow due to a 10-sec (full) occlusion by 50-70% without affecting basal coronary blood flow (FIG. 1c). A monopolar epicardial electrode was sutured to the surface of the ventricle in the region of LCCA distribution to monitor ischemic changes in the electrocardiogram (ECG). The left atrium was cannulated with polythylene tubing for administration of the peptide. Continuous recordings of blood pressure, limb lead II ECG, epicardial electrogram, and mean and phasic LCCA blood flow were obtained on a Model 7 polygraph (Grass Instrument Co., Quincy, Mass.).
One hour after the completion of surgery, a 100 micro-amp continuous anodal direct current delivered from a 9 volt nickel-cadmium battery was applied to the intimal surface of the LCCA. The anode of the battery was in series with a 250,000 ohm potentiometer and the intraluminal coronary artery electrode. The electric circuit was completed by placing the cathode in a subcutaneous site. Electrical stimulation was applied for three hours. At the conclusion of each experiment, the heart was fibrillated electrically and quickly removed, and the LCCA was dissected free as far as possible to verify the position of the implanted anodal electrode.
(§1) Animals were randomly assigned to two treatment groups: vehicle control (i.e., normal saline) or RGD peptides at various concentrations. Peptides were administered intra-atrially in both bolus and continuous injections. […] A continuous infusion of the same peptide was then started immediately after completion of this initial injection. Animals that received a 5 mg/kg bolus also received a 5 mg/kg/hr infusion, whereas animals that received a 10 mg/kg bolus also received a 10 mg/kg/hr infusion. The anti-thrombotic effects of the peptides were monitored until 30 minutes after the occurrence of a persistent, occlusive thrombus or five hours after the initiation of electrical stimulation (whichever resulted first). If an occlusive thrombus had not developed within four hours after the initiation of current, the peptide infusion was stopped.
Coronary thrombosis was quantified as the time to full occlusion. The effects of the various peptide treatments on coronary thrombosis is illustrated in FIG. 4.

[3] = system: canine platelet aggregation; test: In vitro canine platelet aggregation stimulated by ADP, arachidonic acid or collagen; format: cell-based, dog; settings: 10 μm ADP, […] arachidonic acid or 9.6 micrograms/ml collagen; PRP; read-out: IC50 against canine platelet aggregation
Experimental: (§2) Platelet counts and ex vivo aggregation studies were performed one hour before and 1, 3, and 5 hours after application of anodal direct current.
Epinephrine (550 nM) was used to prime platelets before stimulation with arachidonic acid. Peptides were added in 1% dilutions to the PRP solutions.

[4] = system: Gore-tex vascular graft thrombosis; test: Platelet and fibrinogen uptake by Gore-tex grafts in baboon ex vivo shunt
Experimental: Adult male baboons (weighing 16 to 25 kg) were used in these studies. These were sedated with ketamine hydrochloride (200 to 250 mg intramuscular injection) and maintained under anesthesia with sodium pentobarbital (50 to 75 mg administered intravenously as necessary).
Twenty-four hours before the ex vivo shunt was established, platelets were isolated from 500 ml of blood from the test animal and labelled with ca. 500 microcuries of indium-111 oxine (Medi+Physics, Emeryville, Calif.), which irreversibly and specifically binds to platelets with an efficiency of 50%. Immediately after labelling, these platelets were then injected back into the animal and allowed to circulate for 24 hours. Immediately before the start of the study, fibrinogen that had been isolated from the animal and labelled with iodine-131 (DuPont Nuclear, Boston, Mass.) was also injected back into the animal. Also at this time, baseline determinations of the clotting and template bleeding times were made, and blood samples were drawn for hematology studies.
To establish the ex vivo shunt, the femoral artery and vein were percutaneously cannulated with introducer catheters (KMA Inc., Mansfield, Mass.). The catheters were then connected to medical-grade, heparin-coatedsilastic tubing (2.59 mm internal diameter, (Extracorporeal Medical Specialties, Inc., King of Prussia, Pa.). […] Finally, a 5 cm-long test segment of a 4 mm (internal diameter) vascular graft was inserted at the apex of the circuit. The graft used in these studies was Gore-tex (expanded polytetrafluoroethylene, (W. L. Gore and Associates, Inc., Flagstaff, Ariz.). An electromagnetic flow probe was then inserted into the tubing circuit to measure blood flow, which was maintained at 100 ml/min. by varying the resistance imported by a partially occluding screw clamp that was distal to the probe. Finally, a 5 cm-long test segment of a 4 mm (internal diameter) vascular graft was inserted at the apex of the circuit. The graft used in these studies was Gore-tex (expanded polytetrafluoroethylene, W. L. Gore and Associates, Inc., Flagstaff, Ariz.).
Platelet deposition onto the grafts was monitored by dynamic scanning with a gamma camera (Sigma 400, Ohio Nuclear, Inc., Sohon, Ohio), which detects the gamma radiation emitted by the indium^111 -labelled platelets. Once the circuit was in place, the animal was placed under this camera, and blood flow was initiated. Scans were then taken at the rate of one frame per two minutes for two hours. The data from these scans were collected on a dedicated Digital MDA computer (Maynard, Mass.). […]

platelet aggregation [5] = test: Ex vivo platelet aggregation after peptide injection in canine coronary thrombosis model; parameters: species or system dog; settings: for ex vivo aggregation reduced relative to control: 3 mg/kg
Experimental: For all ex vivo studies (see FIGS. 3a, 3b1, 3b2, 3b3, 3c1 and 3c2), control aggregation values were standardized to the percentages of light transmission observed in PRP and PPP samples (0% and 100%, respectively).
as §1, §2
Platelet aggregation was also determined ex vivo at one, three, and five hours after current application. For these studies, arachidonic acid, or collagen was again used to stimulate the platelets.
The average aggregation values determined in these studies for all of the peptide treatments are depicted in FIGS. 3a, 3b1, 3b2, 3b3, 3c1, and 3c2. […] The control responses in these studies were 70-80% of maximum. […] Here the control responses were 55-80% of maximum.

[6] = system: platelets stimulated with thrombin; test: Thrombin-stimulated platelet aggregation (Born aggregometry); format: cell-based, human; settings: thrombin 2 U/ml, gel-filtered platelets, 37° C.
Experimental: Platelet aggregation was assessed using the method of Born, Nature 194: 927-929 (1962), incorporated herein by reference. Briefly, the change in light transmission was measured through a stirred suspension of platelets in an aggregometer (Model 400 VS, Chrono-Log, Havertown, Pa., USA). […] In studies using thrombin, the PRP was gel-filtered on Sepharose 2B in divalent ion-free Tyrode's solution containing 2% BSA. For all studies, the reference standard was platelet-poor plasma, which was obtained by centrifuging PRP at 1000× g for 5 min.
All aggregation studies were performed at 37° C. with a constantly stirred suspension of 3×10^8 platelets/ml. (Platelet count was determined with the aid of a hemacytometer.) Peptides and stimulants were added to these suspensions in 1% dilutions. The PRP and gel-filtered platelets were used within three hours from the time of blood collection.
Peptide anti-aggregation potencies were determined from dose-responsive curves for the inhibition of the maximum aggregation responses stimulated by physiologic doses of ADP (10 μm) and thrombin (2 U/ml).

[7] = 10 mg/kg bolus + 10 mg/kg/hr infusion, intra-atrial
[8] = animal 1, two bolus IV injections of 10 mg/kg
[9] = animal 2, 10 mg/kg IV bolus + 10 mg/kg/hr infusion for two hours
[10] = 10 mg/kg, all three time points

## (t-but-am-Pmp)GHRGDLRPenA
[1]
  IC50: 89 µM

## (t-butylAmino-Pmp) GHRGDLRCA
[1]
  IC50: 130 µM

## FRGDSPDG
[1]
  IC50: 110 µM

## GPenFRGDSFCA
[1]
  IC50: > 200 µM

## GPenGHRGDLRCA
Platelet aggregation [2]
  ex vivo platelet response to ADP: completely unresponsive
Coronary thrombosis; [7]
  time to full occlusion: did not significantly influence
[3]
  IC50: 15 to 30 µM
[4]; [8]
  reduction in I131-fibrinogen uptake by graft: 79%
  reduction in In111-platelet uptake by graft: 90%
[4]; [9]
  reduction in labelled fibrinogen uptake by graft: 78%
  reduction in labelled platelet uptake by graft: 84%
Platelet aggregation [5]; [10]
  ex vivo inhibition of AA-stimulated aggregation relative to control: 43-70%
  ex vivo inhibition of collagen-stimulated aggregation relative to control: 12-50%
Platelet aggregation [5]; 10 mg/kg, one, three, five hours
  ex vivo inhibition of ADP-stimulated aggregation: substantially inhibited

## GPenGHRGDTRCA
[6]
  IC50: 17 µM
[1]
  IC50: 11.3 µM

## GPenGRGDRPCA
[1]
  IC50: 22.3 µM

## GPenGRGDTPCA
[6]
  IC50: 28 µM
[1]
  IC50: 22.3 µM

## GPenLRGDSPCA
[6]
  IC50: 308 µM
[1]
  IC50: 415 µM

## GPenLRGDSRCA
[6]
  IC50: 49 µM
[1]
  IC50: 41 µM

## GPenLRGDTPCA
[1]
  IC50: 86 µM

## G[Pen]GRGDSFCA (cysteine pairing not given here)
[1]
  IC50: 115 µM

## G[Pen]YRGDSPCA (cysteine pairing not given here)
[1]
  IC50: 47 µM

## LPenGHRGDLRCA
[1]
  IC50: 10.5 µM

## LRGDSPDG
[1]
  IC50: 150 µM

## PmpGRGDTPCA
[1]
  IC50: 85 µM

## R2 PenGRGDTPCA
[6]
  IC50: 2.7 µM
[1]
  IC50: 8.2 µM

## R(orn)GHRGDLRDR
[1]
  IC50: > 200 µM

## RPenGHRGDWRCR
Coronary thrombosis; 5 mg/kg
  thrombus formation in animals with circulating platelet levels one-third of normal: able to prevent thrombus formation
Coronary thrombosis; 5 mg/kg bolus + 5 mg/kg/hr infusion
  time to full occlusion: significantly prolonged the time to occlusion
Coronary thrombosis; [7]
  time to full occlusion: completely prevented occlusion
[3]
  IC50: 1.5 to 5 µM
[6]
  IC50: 1.2 µM
[1]
  IC50: 1.3 µM
Platelet aggregation [5]; 5 mg/kg
  ex vivo inhibition of platelet activation by collagen: near-maximal inhibition
Platelet aggregation [5]; 5 mg/kg, all three time points
  ex vivo platelet response to ADP and AA: completely unresponsive
Platelet aggregation [5]; 5 mg/kg, platelet count ca. one-third of normal (104,000/ml vs. 361,000/ml)
  ex vivo anti-aggregation effect when platelet count was low: more pronounced
Platelet aggregation [5]; 10 mg/kg, five-hour point
  ex vivo platelet responsiveness: slightly improved
Platelet aggregation [5]; 10 mg/kg, one- and three-hour time points
  ex vivo platelet aggregation by all three stimuli: prevented platelet aggregation

## RPenGRGDTPCA
[6]
  IC50: 3.1 µM
[1]
  IC50: 7 µM

## RPenGRGDTPCK
[1]
  IC50: 7.6 µM

## RPenGRGDTPCR
[6]
  IC50: 2 µM
[1]
  IC50: 6.3 µM

## RPenGRGDWPCR
Coronary thrombosis; 3 mg/kg
  time to full occlusion: ineffective
Coronary thrombosis; [7]
  time to full occlusion: prevented occlusion
[3]
  IC50: 1.5 to 5 µM
[6]
  IC50: 0.53 µM
Platelet aggregation [5]; one hour
  ex vivo aggregation reduced relative to control: 20-58%
Platelet aggregation [5]; three and five hours, listed as 4R
  ex vivo aggregation reduced relative to control: 75-100% and 72-100%
Platelet aggregation [5]; 10 mg/kg, all time points
  ex vivo platelet response to all modes of stimulation: unresponsive

## R[Pen]GHRGDTRCR (cysteine pairing not given here)
[1]
  IC50: 8.8 µM

## R[Pen]GRGDLRCA (cysteine pairing not given here)
[6]
  IC50: 13 µM
[1]
  IC50: 16 µM

## R[Pen]GRGDSRCA (cysteine pairing not given here)
[6]
  IC50: 12 µM
[1]
  IC50: 12 µM

## VRGDSPDG
[1]
  IC50: 92 µM
